Assay results: US12364764B2, “Sustained release thermosetting gels comprising sodium channel blockers and the methods of making same” (Pacira Therapeutics, Inc., priority 2019, dated 2025)

Experiment: Measured drug load / API content of funapide gel formulations
Type: physicochemical

**Q.** For O=C1N(Cc2ccc(C(F)(F)F)o2)c2ccccc2[C@]12COc1cc3c(cc12)OCO3 [funapide], which “drug concentration that can be loaded within the thermosensitive hydrogel formulation” value is on record?
**A.** up to 20 mg/mL
